Experimental data as given in patent US6706663B2, “Herbicidal 3-heterocyclic substituted benzisothiazole and benzisoxazole compounds” (Wyeth, priority 2000, dated 2004).

Legend:
[1] = system: ORYSAT (Rice, Tebonnet); test: Preemergence herbicidal evaluation; type: in vivo, Oryza sativa, (L.) Tebonnet; settings: rated 4-5 weeks after treatment
[2] = system: ABUTH (Abutilon theophrasti); test: Postemergence herbicidal evaluation; type: in vivo, Medic.
Method in brief: (§1)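 Visual 0–9 injury scores versus control plants, covering stand, vigour, malformation, size, chlorosis and general appearance, taken four to five weeks post-spray and averaged over replicate tests. Plants were sprayed at roughly two weeks old and held on greenhouse benches.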

[3] = system: CHEAL (Chenopodium album); test: Postemergence herbicidal evaluation; type: in vivo, L.
Method in brief: as §1

[4] = system: CASOB (Cassia obtusifolia); test: Postemergence herbicidal evaluation; type: in vivo, L.
Method in brief: as §1

[5] = system: AMBEL (Ambrosia artemisifolia); test: Postemergence herbicidal evaluation; type: in vivo, L.
Method in brief: as §1

[6] = system: GALAP (Galium aparine); test: Preemergence herbicidal evaluation; type: in vivo; settings: rated 4-5 weeks after treatment
Method in brief: (§2)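 Preemergence soil spray, aq. acetone; greenhouse; visual 0–9 score vs control at 4–5 wk.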

[7] = system: ECHCG (Echinochloa crus-galli); test: Preemergence herbicidal evaluation; type: in vivo, (L.) Beau; settings: rated 4-5 weeks after treatment
Method in brief: as §2

[8] = system: SETVI (Setaria viridis); test: Preemergence herbicidal evaluation; type: in vivo, (L.) Beau; settings: rated 4-5 weeks after treatment
Method in brief: as §2

[9] = system: ZEAMX (Corn, Field); test: Postemergence herbicidal evaluation; type: in vivo, Zea mays, L.
Method in brief: as §1

[10] = system: GALAP (Galium aparine); test: Postemergence herbicidal evaluation; type: in vivo
Method in brief: as §1

[11] = system: TRZAWR (Wheat, Winter, cv Riband); test: Preemergence herbicidal evaluation; type: in vivo, Triticum aestivum; settings: rated 4-5 weeks after treatment
Method in brief: as §2

[12] = system: ORYSAT (Rice, Tebonnet); test: Postemergence herbicidal evaluation; type: in vivo, Oryza sativa, (L.) Tebonnet
Method in brief: as §1

[13] = system: GLXMAW (Soybean, Williams); test: Postemergence herbicidal evaluation; type: in vivo, Glycine max, (L.) Merr. cv Williams
Method in brief: as §1

[14] = system: IPOHE (Ipomoea hederacea); test: Postemergence herbicidal evaluation; type: in vivo, (L.) Jacq.
Method in brief: as §1

## Cc1ccc(-c2nsc3ccc(-n4c(=O)cc(C(F)(F)F)n(C)c4=O)cc23)nc1 [Compound 42, 1-methyl-3-[3-(5-methyl-2-pyridyl)-1,2-benzisothiazol-5-yl]-6-(trifluoromethyl)uracil]
[1]; Rate 0.0620 kg/ha
  Preemergence herbicidal rating ORYSAT: 0.0
[1]; Rate 0.1250 kg/ha
  Preemergence herbicidal rating ORYSAT: 3.5
[1]; Rate 0.2500 kg/ha
  Preemergence herbicidal rating ORYSAT: 5.0
[2]; rate 0.0320 kg/ha
  Postemergence herbicidal rating, ABUTH: 9.0
[2]; rate 0.0620 kg/ha
  Postemergence herbicidal rating, ABUTH: 9.0
[2]; rate 0.1250 kg/ha
  Postemergence herbicidal rating, ABUTH: 9.0
[3]; rate 0.0320 kg/ha
  Postemergence herbicidal rating, CHEAL: 9.0
[3]; rate 0.0620 kg/ha
  Postemergence herbicidal rating, CHEAL: 9.0
[3]; rate 0.1250 kg/ha
  Postemergence herbicidal rating, CHEAL: 9.0
[4]; rate 0.0320 kg/ha
  Postemergence herbicidal rating, CASOB: 1.0
[4]; rate 0.0620 kg/ha
  Postemergence herbicidal rating, CASOB: 1.0
[4]; rate 0.1250 kg/ha
  Postemergence herbicidal rating, CASOB: 4.0
[5]; rate 0.0320 kg/ha
  Postemergence herbicidal rating, AMBEL: 9.0
[5]; rate 0.0620 kg/ha
  Postemergence herbicidal rating, AMBEL: 9.0
[5]; rate 0.1250 kg/ha
  Postemergence herbicidal rating, AMBEL: 9.0
[6]; Rate 0.0620 kg/ha
  Preemergence herbicidal rating GALAP: 0.0
[6]; Rate 0.1250 kg/ha
  Preemergence herbicidal rating GALAP: 0.0
[6]; Rate 0.2500 kg/ha
  Preemergence herbicidal rating GALAP: 3.0
[7]; Rate 0.0620 kg/ha
  Preemergence herbicidal rating ECHCG: 1.0
[7]; Rate 0.1250 kg/ha
  Preemergence herbicidal rating ECHCG: 5.5
[7]; Rate 0.2500 kg/ha
  Preemergence herbicidal rating ECHCG: 8.5
[8]; Rate 0.0620 kg/ha
  Preemergence herbicidal rating SETVI: 5.0
[8]; Rate 0.1250 kg/ha
  Preemergence herbicidal rating SETVI: 7.5
[8]; Rate 0.2500 kg/ha
  Preemergence herbicidal rating SETVI: 9.0
[9]; rate 0.0320 kg/ha
  Postemergence herbicidal rating, ZEAMX: 5.5
[9]; rate 0.0620 kg/ha
  Postemergence herbicidal rating, ZEAMX: 5.5
[9]; rate 0.1250 kg/ha
  Postemergence herbicidal rating, ZEAMX: 5.5
[10]; rate 0.0320 kg/ha
  Postemergence herbicidal rating, GALAP: 1.0
[10]; rate 0.0620 kg/ha
  Postemergence herbicidal rating, GALAP: 3.0
[10]; rate 0.1250 kg/ha
  Postemergence herbicidal rating, GALAP: 3.0
[11]; Rate 0.0620 kg/ha
  Preemergence herbicidal rating TRZAWR: 0.0
[11]; Rate 0.1250 kg/ha
  Preemergence herbicidal rating TRZAWR: 2.0
[11]; Rate 0.2500 kg/ha
  Preemergence herbicidal rating TRZAWR: 5.0
[12]; rate 0.0320 kg/ha
  Postemergence herbicidal rating, ORYSAT: 1.0
[12]; rate 0.0620 kg/ha
  Postemergence herbicidal rating, ORYSAT: 1.5
[12]; rate 0.1250 kg/ha
  Postemergence herbicidal rating, ORYSAT: 1.5
[13]; rate 0.0320 kg/ha
  Postemergence herbicidal rating, GLXMAW: 6.0
[13]; rate 0.0620 kg/ha
  Postemergence herbicidal rating, GLXMAW: 8.0
[13]; rate 0.1250 kg/ha
  Postemergence herbicidal rating, GLXMAW: 8.0
[14]; rate 0.0320 kg/ha
  Postemergence herbicidal rating, IPOHE: 9.0
[14]; rate 0.0620 kg/ha
  Postemergence herbicidal rating, IPOHE: 9.0
[14]; rate 0.1250 kg/ha
  Postemergence herbicidal rating, IPOHE: 9.0
